Experimental data published in PMC3901077 (Journal of medicinal chemistry, 2010).
Read-outs that look alike come from different tables or passages of the source.

Assays:
[1] = system: A549 human lung carcinoma cells; assay: MTT cytotoxicity assay in A549 cells; format: cell-based; conditions: IC50 versus CPT

SMILES	time for ester bond hydrolysis (PB pH 6.6, 37 °C) [h]	time for ester bond hydrolysis (PB pH 7.0, 37 °C)	time for ester bond hydrolysis (PB pH 7.4, 37 °C) [h]	stability (rank among prodrugs) (PB pH 6.6, 7.0 and 7.4)	CPT reconversion rate (rank among prodrugs) (PB pH 6.6, 7.0 and 7.4)	fold less potent than parent drug (CPT) [1]
CC[C@@H](N)C(=O)O[C@]1(CC)C(=O)OCc2c1cc1n(c2=O)Cc2cc3ccccc3nc2-1 [Prodrug 2c]	120	~ 120 h	≤ 96	–	–	–
CCC[C@@H](N)C(=O)O[C@]1(CC)C(=O)OCc2c1cc1n(c2=O)Cc2cc3ccccc3nc2-1 [Prodrug 2d]	144	≤ 120 h	≤ 120	most stable	–	–
CC[C@@]1(OC(=O)CN)C(=O)OCc2c1cc1n(c2=O)Cc2cc3ccccc3nc2-1 [Prodrug 2a]	≤ 96	≤ 96 h	≤ 72	–	fastest	about 2 fold
CC[C@@]1(OC(=O)[C@@H](C)N)C(=O)OCc2c1cc1n(c2=O)Cc2cc3ccccc3nc2-1 [Prodrug 2b]	96	96 h	≤ 72	–	–	~20 fold
